Calls of active or inactive are those of the source. The rule behind the calls is not given here.
Assays:
[1] = biological target: von Hippel-Lindau disease tumor suppressor (Homo sapiens, UniProt P40337); experiment: Inhibition of VHL (unknown origin)
[2] = biological target: T1, von Hippel-Lindau disease tumor suppressor/SWI/SNF-related matrix-associated actin-dependent regulator of chromatin subfamily A member 4 (Homo sapiens, UniProt P51532+P40337); experiment: PROTAC activity at SMARCA4/VHL1 in human HeLa cells assessed as protein degradation after 2 hrs by Nano-Glo HiBiT lytic detection assay; format: cell-based
T1 sequence (P51532 whole entry): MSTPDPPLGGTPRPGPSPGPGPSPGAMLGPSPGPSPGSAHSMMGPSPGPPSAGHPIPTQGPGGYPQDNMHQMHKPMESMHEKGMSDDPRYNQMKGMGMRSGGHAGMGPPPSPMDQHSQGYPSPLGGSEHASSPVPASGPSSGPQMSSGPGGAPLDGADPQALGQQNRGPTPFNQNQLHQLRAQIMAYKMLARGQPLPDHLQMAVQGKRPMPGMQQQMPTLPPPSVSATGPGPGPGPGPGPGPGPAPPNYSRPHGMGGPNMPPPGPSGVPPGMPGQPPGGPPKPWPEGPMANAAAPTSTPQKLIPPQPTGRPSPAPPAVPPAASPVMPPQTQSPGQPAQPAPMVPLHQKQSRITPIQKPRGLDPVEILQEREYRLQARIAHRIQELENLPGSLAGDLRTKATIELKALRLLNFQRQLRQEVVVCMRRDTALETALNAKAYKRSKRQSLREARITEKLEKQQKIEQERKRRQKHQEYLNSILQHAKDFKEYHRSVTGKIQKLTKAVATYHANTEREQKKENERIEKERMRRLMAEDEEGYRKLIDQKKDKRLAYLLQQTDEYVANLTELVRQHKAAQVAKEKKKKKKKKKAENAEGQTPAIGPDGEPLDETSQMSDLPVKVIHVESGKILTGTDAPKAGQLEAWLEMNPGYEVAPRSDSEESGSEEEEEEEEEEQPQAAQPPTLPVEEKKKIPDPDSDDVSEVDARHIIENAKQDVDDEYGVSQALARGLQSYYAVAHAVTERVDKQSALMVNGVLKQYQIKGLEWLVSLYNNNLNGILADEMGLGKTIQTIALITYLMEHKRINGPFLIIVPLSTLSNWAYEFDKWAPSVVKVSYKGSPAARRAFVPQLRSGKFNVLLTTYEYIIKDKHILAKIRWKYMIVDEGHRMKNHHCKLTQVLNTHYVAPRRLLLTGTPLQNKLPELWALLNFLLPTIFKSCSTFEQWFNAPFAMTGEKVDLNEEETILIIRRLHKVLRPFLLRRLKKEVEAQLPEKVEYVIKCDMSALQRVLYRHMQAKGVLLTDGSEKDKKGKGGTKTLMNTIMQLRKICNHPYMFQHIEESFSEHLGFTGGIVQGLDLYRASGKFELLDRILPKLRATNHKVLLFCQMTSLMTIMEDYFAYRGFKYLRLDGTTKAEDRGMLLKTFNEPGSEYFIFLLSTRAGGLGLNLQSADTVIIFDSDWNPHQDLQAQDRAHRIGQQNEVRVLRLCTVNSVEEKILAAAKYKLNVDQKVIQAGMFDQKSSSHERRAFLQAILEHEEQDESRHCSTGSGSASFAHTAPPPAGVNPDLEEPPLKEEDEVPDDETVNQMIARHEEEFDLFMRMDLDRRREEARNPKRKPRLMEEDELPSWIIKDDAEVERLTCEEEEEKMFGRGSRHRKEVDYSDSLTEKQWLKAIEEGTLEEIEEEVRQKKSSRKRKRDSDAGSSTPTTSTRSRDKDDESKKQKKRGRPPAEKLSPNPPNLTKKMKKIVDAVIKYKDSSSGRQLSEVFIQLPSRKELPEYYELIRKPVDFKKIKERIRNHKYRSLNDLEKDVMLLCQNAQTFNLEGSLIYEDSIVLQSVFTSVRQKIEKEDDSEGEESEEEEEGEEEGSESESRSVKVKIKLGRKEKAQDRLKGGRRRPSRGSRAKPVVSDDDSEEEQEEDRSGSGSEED
T1 sequence (P40337 whole entry): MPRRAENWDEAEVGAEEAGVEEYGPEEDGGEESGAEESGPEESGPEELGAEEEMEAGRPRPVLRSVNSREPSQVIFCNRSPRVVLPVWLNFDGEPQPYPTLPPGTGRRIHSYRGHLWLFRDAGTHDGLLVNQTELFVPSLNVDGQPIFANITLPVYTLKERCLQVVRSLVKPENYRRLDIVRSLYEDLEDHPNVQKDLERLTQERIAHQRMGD

[3] = Antiproliferative activity against human SMARCA4-deficient NCI-H1693 cells assessed as maximal inhibition of cell growth measured after 7 days by WST-8 assay relative to control; format: functional; conditions: time 7 day
NCI-H1792 [4] = experiment: Antiproliferative activity against human SMARCA4-wild type NCI-H1792 cells assessed as maximal inhibition of cell growth measured after 7 days by WST-8 assay relative to control; format: functional; conditions: time 7 day
[5] = Antiproliferative activity against human SMARCA4-deficient NCI-H838 cells assessed as maximal inhibition of cell growth measured after 7 days by WST-8 assay relative to control; format: functional; conditions: time 7 day
NCI-H1792 [6] = experiment: Antiproliferative activity against human SMARCA4-wild type NCI-H1792 cells assessed as inhibition of cell growth measured after 7 days by WST-8 assay; format: functional; conditions: NCI-H1792, 168 h, time 7 day
NCI-H838 = experiment: In vivo anti-tumor activity against SMARCA4-deficient human NCI-H838 cells xenografted in SCID mouse assessed as assessed as inhibition of tumor growth at 10 to 30 mg/kg, iv weekly once; format: functional, organism-based; conditions: dose 10-30 mg/kg
[7] = Antiproliferative activity against human […] NCI-H1975 cells assessed as maximal inhibition of cell growth measured after 7 days by WST-8 assay relative to control; format: functional; conditions: time 7 day
[8] = Antiproliferative activity against human SMARCA4-deficient NCI-H1944 cells assessed as maximal inhibition of cell growth measured after 7 days by WST-8 assay relative to control; format: functional; conditions: time 7 day
[9] = Antiproliferative activity against human SMARCA4-deficient NCI-H838 cells assessed as inhibition of cell growth measured after 7 days by WST-8 assay; format: functional; conditions: NCI-H838, 168 h, time 7 day
[10] = Antiproliferative activity against human […] NCI-H1975 cells assessed as inhibition of cell growth measured after 7 days by WST-8 assay; format: functional; conditions: NCI-H1975, 168 h, time 7 day
[11] = Antiproliferative activity against human SMARCA4-deficient NCI-H1944 cells assessed as inhibition of cell growth measured after 7 days by WST-8 assay; format: functional; conditions: NCI-H1944, 168 h, time 7 day
SK-MEL-5 = experiment: Antiproliferative activity against human SMARCA4-deficient SK-MEL-5 cells assessed as inhibition of cell growth measured after 7 days by WST-8 assay; format: functional; conditions: SK-MEL-5, 168 h, time 7 day
[12] = Antiproliferative activity against human SMARCA4-deficient NCI-H1568 cells assessed as maximal inhibition of cell growth measured after 7 days by WST-8 assay relative to control; format: functional; conditions: time 7 day
[13] = Antiproliferative activity against human SMARCA4-deficient NCI-H1693 cells assessed as inhibition of cell growth measured after 7 days by WST-8 assay; format: functional; conditions: NCI-H1693, 168 h, time 7 day
SK-MEL-28 [14] = experiment: Antiproliferative activity against human SMARCA4-wild type SK-MEL-28 cells assessed as maximal inhibition of cell growth measured after 7 days by WST-8 assay relative to control; format: functional; conditions: time 7 day
SK-MEL-28 [15] = experiment: Antiproliferative activity against human SMARCA4-wild type SK-MEL-28 cells assessed as inhibition of cell growth measured after 7 days by WST-8 assay; format: functional; conditions: SK-MEL-28, 168 h, time 7 day
[16] = Antiproliferative activity against human SMARCA4-deficient NCI-H1568 cells assessed as inhibition of cell growth measured after 7 days by WST-8 assay; format: functional; conditions: NCI-H1568, 168 h, time 7 day
[17] = Drug uptake in tumor of human NCI-H838 cells xenografted SCID mouse model at 10 mg/kg, iv measured after 48 hrs by LC-MS/MS analysis; format: ADME, organism-based, Neoplasm; conditions: read-out: Drug uptake
[18] = biological target: von Hippel-Lindau disease tumor suppressor/SWI/SNF-related matrix-associated actin-dependent regulator of chromatin subfamily A member 2 (Homo sapiens, UniProt P51531+P40337); experiment: PROTAC activity at SMARCA2/VHL1 in human HeLa cells assessed as protein degradation by Nano-Glo HiBiT lytic detection assay; format: cell-based
Sequence of von Hippel-Lindau disease tumor suppressor/SWI/SNF-related matrix-associated actin-dependent regulator of chromatin subfamily A member 2 (P51531 whole entry): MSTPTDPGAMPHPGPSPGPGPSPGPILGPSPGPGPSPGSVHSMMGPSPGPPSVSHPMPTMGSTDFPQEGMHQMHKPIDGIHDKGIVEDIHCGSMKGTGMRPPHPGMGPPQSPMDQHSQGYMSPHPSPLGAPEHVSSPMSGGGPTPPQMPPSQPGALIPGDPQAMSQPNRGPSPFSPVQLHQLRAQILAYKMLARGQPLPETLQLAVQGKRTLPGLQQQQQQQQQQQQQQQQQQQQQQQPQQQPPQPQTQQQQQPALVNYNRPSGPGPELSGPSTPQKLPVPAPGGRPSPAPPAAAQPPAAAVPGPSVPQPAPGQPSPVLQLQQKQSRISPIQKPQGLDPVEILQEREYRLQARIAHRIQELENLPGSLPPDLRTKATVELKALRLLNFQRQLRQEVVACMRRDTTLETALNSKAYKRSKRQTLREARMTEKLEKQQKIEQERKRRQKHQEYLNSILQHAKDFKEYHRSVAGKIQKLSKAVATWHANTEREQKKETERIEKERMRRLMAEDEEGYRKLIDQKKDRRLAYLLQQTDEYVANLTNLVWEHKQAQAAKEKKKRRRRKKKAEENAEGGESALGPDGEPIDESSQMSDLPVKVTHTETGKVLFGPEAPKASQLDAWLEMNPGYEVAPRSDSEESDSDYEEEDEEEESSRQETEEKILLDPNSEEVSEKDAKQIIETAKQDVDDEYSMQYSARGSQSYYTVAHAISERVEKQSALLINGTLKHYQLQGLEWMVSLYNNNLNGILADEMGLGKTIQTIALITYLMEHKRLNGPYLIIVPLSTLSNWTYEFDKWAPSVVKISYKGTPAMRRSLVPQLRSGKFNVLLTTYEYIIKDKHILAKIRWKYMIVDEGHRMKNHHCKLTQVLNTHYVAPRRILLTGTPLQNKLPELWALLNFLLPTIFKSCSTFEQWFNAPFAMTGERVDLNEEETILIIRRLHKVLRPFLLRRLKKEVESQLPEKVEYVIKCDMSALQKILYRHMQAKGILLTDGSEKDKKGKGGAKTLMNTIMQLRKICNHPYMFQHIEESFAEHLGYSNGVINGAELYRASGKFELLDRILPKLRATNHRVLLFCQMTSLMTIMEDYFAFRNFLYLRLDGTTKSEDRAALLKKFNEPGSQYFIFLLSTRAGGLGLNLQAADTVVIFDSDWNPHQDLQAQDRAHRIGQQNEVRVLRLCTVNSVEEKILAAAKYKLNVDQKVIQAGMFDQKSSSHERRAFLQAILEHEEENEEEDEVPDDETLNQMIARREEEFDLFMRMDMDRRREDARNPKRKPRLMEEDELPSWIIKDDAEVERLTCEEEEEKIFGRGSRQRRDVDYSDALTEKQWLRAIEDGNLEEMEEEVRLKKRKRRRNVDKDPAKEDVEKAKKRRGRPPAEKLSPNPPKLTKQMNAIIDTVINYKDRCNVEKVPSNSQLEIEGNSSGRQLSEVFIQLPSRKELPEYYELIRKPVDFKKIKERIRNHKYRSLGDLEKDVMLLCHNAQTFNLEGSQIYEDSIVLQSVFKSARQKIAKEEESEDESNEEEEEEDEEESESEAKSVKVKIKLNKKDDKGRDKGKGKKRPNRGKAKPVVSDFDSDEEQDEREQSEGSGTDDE
Sequence of von Hippel-Lindau disease tumor suppressor/SWI/SNF-related matrix-associated actin-dependent regulator of chromatin subfamily A member 2 (P40337 whole entry): as the sequence (P40337 whole entry) above

[19] = Drug uptake in tumor of human NCI-H838 cells xenografted SCID mouse model at 10 mg/kg, iv measured after 168 hrs by LC-MS/MS analysis; format: ADME, organism-based, Neoplasm; conditions: read-out: Drug uptake
[20] = Plasma concentration in SCID mouse xenografted with human NCI-H838 cells at 10 mg/kg, iv measured after 168 hrs by LC-MS/MS analysis; format: ADME, organism-based; conditions: SCID, plasma
[21] = Plasma concentration in SCID mouse xenografted with human NCI-H838 cells at 10 mg/kg, iv measured after 48 hrs by LC-MS/MS analysis; format: ADME, organism-based
[22] = biological target: T1, von Hippel-Lindau disease tumor suppressor/SWI/SNF-related matrix-associated actin-dependent regulator of chromatin subfamily A member 4; experiment: PROTAC activity at SMARCA4/VHL1 in human HeLa cells assessed as protein degradation by Nano-Glo HiBiT lytic detection assay; format: cell-based

Sequence of von Hippel-Lindau disease tumor suppressor (P40337 whole entry): as above

Q: For `Cc1cn([C@H](C(=O)N2C[C@H](O)C[C@H]2C(=O)N[C@@H](C)c2ccc(-c3scnc3C)cc2)C(C)(C)C)nn1`, which IC50 [1] is on record?
A: 0.0161 µM

Q: With `Cc1ncsc1-c1ccc([C@H](CN2CCOCC2)NC(=O)[C@@H]2C[C@H](O)CN2C(=O)[C@@H](n2cc([C@H]3CC[C@H](CN4CCC(c5ccc6c(c5)C5(CCCCC5)c5nc(=O)c7c(Cl)cccc7n5-6)CC4)CC3)nn2)C(C)(C)C)cc1` as the compound, how does the DC50 [2] read?
A: Not_active

Q: For `Cc1ncsc1-c1ccc([C@H](C)NC(=O)[C@@H]2C[C@@H](O)CN2C(=O)[C@@H](n2cc(C3CC3)nn2)C(C)(C)C)cc1`, which IC50 [1] is on record?
A: 0.0189 µM

Q: For `Cc1ncsc1-c1ccc([C@H](C)NC(=O)[C@@H]2C[C@@H](O)CN2C(=O)[C@@H](NC(=O)[C@H]2CC[C@H](CN3CC4(CCC(n5cc(-c6cc(-c7ccccc7O)nnc6N)cn5)CC4)C3)CC2)C(C)(C)C)cc1`, which Imax [3] is on record?
A: 81%

Q: And the Imax (NCI-H1792 [4])?
A: 25%

Q: What about the Imax [5] of the same compound?
A: 77%

Q: What about the GI50 (NCI-H1792 [6]) of the same compound?
A: > 10 µM

Q: What about the Activity (NCI-H838) of the same compound?
A: Active

Q: What about the Imax [7] of the same compound?
A: 40%

Q: And the Imax [8]?
A: 70%

Q: What about the GI50 [9] of the same compound?
A: 0.152 µM

Q: What about the GI50 [10] of the same compound?
A: > 10 µM

Q: What about the GI50 [11] of the same compound?
A: 0.123 µM

Q: And the GI50 (SK-MEL-5)?
A: 0.016 µM

Q: And the Imax [12]?
A: 87%

Q: And the GI50 [13]?
A: 0.043 µM

Q: And the Imax (SK-MEL-28 [14])?
A: 15%

Q: What about the GI50 (SK-MEL-28 [15]) of the same compound?
A: > 10 µM

Q: What about the GI50 [16] of the same compound?
A: 0.012 µM

Q: With `Cc1ncsc1-c1ccc([C@H](CN2CCOCC2)NC(=O)[C@@H]2C[C@@H](O)CN2C(=O)[C@H](C2CCOCC2)n2cc([C@H]3CC[C@H](CN4CCC(c5ccc6c(c5)-n5c(nc(=O)c7c(Cl)cccc75)C65CCCCC5)CC4)CC3)nn2)cc1` as the compound, how does the concentration at 48 h [17] read?
A: 491 ng/mL

Q: What about the DC50 [18] of the same compound?
A: 0.0001 µM

Q: And the concentration at 168 h [19]?
A: 65 ng/mL

Q: What about the concentration at 168 h [20] of the same compound?
A: 2.6 ng/mL

Q: What about the concentration at 48 h [21] of the same compound?
A: 30 ng/mL

Q: And the DC50 [22]?
A: > 1 µM

From ChEMBL document CHEMBL6096675 (J Med Chem, 2025)
